Assay results published in patent US20110305707A1, “COMPOSITIONS AND METHODS FOR TREATING CANCER” (THE CLEVELAND CLINIC FOUNDATION, priority 2010, published 2011).

Columns and labels:
[1] = Plasma levels of apoA1 after subcutaneous apoA1 injection every other day; assay type: in vivo, mice; details: apoA1 s.c. every other day, steady state, days 22-24
Procedure: In another part of this Example, apoA1 was injected subcutaneously into mice every other day and the plasma levels of apoA1 at steady state (shown in FIG. 9 for says 22-24) were monitored. […] This approximates the plasma levels of apoA1 in humans.

[2] = tested on: F10L_B16 Melanoma Tumor cells; assay: F10L_B16 melanoma in apoA1-KO mice given human ApoA1 or saline throughout the study (xenogen imaging, survival); assay type: in vivo; details: vs normal saline
Procedure: In another part of this Example, human ApoA1 or normal saline (control) was given to apoA1-KO mice throughout duration of the study following the dosing schedule of 15 mg s.c. QOD. 10^5 F10L_B16 Melanoma Tumor cells were injected subcutaneously into the dorsum of the mice. Total tumor burden and metastases were quantified by xenogen imaging. […] Images of the mice 16 days post tumor injection are shown in FIG. 11, which show much greater tumor growth in the saline treated mice. Images of the mice 21 days post tumor injection are shown in FIG. 12, which show much greater tumor growth in the saline treated mice.

malignant melanoma = assay: Malignant melanoma animal model, apoA1 given as therapy after tumor growth is established; assay type: in vivo, mice
Procedure: In another part of this Example, the impact of giving apoA1 as a therapy is evaluated after the tumor growth is established and metastases are detectable. The same malignant melanoma animal model is employed. ApoA1 injections were started one week after tumor injection. […] In the insets for both 16A and 16B, note that apoA1 injections actually shrink peak tumor volume by ˜50% within 1-2 weeks of therapy. A similar ˜50% reduction in peak metastases burden is also noted in the apoA1 treated mice.
In similar experiments, ApoA2 was given in the same dosing strategy as apoA1 vs normal saline (S) control.

[3] = 15 mg s.c. QOD throughout study
[4] = ApoA1 injections started one week after tumor injection
[5] = ApoA2 given in the same dosing strategy, vs normal saline

apolipoprotein A-1 [ApoA1]
plasma level of apoA1 [1]: 75 to 175 mg/dL
metastases formation (xenogen imaging) [2, 3]: blocks tumor growth and metastases formation
tumor growth (total tumor burden, xenogen imaging) [2, 3]: blocks tumor growth
survival ([2]; 15 mg s.c. QOD): much greater survival
metastases formation (malignant melanoma; [4]): dramatically reduced
overall tumor growth (malignant melanoma; [4]): dramatically reduced
potency at reducing cancer growth compared with ApoA2 (malignant melanoma; [5]): markedly more potent
potency at reducing metastases formation compared with ApoA2 (malignant melanoma; [5]): markedly more potent
reduction in peak metastases burden (malignant melanoma; injections started one week after tumor injection): ~50%
shrinkage of peak tumor volume (malignant melanoma; injections started one week after tumor injection, within 1-2 weeks of therapy): ~50%
